Measurements reported in paper PMC9118204, “Novel Dihydropyrimidinone Derivatives as Potential P-Glycoprotein Modulators” (ACS Omega, 2022).

Tests used:
[1] = biological target: T1, human P-glycoprotein (hPgp) (Homo sapiens, UniProt P08183); test: hPgp-mediated calcein-AM efflux assay in Caco-2 VB cells; format: cell-based; conditions: for EC50: Caco-2 VB cells, calcein-AM, read-out: inhibition of calcein extrusion, EC50
T1 construct: Caco-2 VB cells, which overexpress hPGP, were generated by growing Caco-2 cells in the presence of 1 μg/mL vinblastine; endogenous in cells; host or cells: Caco-2 VB (vinblastine-resistant human colorectal adenocarcinoma Caco-2 cells)
T1 sequence (P08183 whole entry): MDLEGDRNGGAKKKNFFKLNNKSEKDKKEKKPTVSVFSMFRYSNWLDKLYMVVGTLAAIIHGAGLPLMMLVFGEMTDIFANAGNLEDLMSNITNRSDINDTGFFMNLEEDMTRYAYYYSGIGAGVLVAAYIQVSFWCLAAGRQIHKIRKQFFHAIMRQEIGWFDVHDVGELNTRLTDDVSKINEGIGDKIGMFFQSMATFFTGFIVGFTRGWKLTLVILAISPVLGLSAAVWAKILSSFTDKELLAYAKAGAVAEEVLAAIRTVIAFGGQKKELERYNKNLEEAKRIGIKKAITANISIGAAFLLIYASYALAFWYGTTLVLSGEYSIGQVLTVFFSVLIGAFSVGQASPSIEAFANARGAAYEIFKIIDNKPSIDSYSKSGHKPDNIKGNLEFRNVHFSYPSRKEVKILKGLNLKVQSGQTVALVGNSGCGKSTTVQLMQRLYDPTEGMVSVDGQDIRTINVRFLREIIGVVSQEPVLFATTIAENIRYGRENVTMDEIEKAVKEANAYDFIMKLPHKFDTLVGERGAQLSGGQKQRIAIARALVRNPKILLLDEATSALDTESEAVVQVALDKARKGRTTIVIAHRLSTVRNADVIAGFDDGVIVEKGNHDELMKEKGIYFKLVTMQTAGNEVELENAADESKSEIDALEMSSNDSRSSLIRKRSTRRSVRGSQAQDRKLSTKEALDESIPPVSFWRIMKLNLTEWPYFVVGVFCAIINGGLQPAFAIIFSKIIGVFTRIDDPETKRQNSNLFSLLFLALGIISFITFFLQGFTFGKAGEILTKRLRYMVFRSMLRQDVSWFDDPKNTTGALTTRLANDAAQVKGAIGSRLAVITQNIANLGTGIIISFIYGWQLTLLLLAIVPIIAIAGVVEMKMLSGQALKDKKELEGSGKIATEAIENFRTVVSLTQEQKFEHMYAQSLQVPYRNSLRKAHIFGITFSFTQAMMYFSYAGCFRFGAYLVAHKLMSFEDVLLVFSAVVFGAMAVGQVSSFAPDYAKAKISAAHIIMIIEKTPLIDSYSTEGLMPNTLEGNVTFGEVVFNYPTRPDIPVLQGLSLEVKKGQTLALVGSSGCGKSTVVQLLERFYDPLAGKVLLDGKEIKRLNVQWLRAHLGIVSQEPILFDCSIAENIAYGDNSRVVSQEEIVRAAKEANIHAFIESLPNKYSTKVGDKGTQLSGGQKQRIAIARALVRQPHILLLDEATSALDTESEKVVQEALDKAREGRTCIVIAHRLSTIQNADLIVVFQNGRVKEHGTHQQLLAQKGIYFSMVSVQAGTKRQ
Method: (§1) In this assay, hydrolysis of intracellular calcein-AM to calcein by endogenous cellular esterases causes the cell to become highly fluorescent (see Figure S1 in Supporting Information).
The colorectal adenocarcinoma Caco-2 cell line was generously provided by the Zydus Research Centre, Ahmedabad, Gujarat, India. […] Caco-2 VB cells, which overexpress hPGP, were generated by growing Caco-2 cells in the presence of 1 μg/mL vinblastine. The drug was removed from the culture medium 2–3 days prior to using the Caco-2 VB cells in the biological assays.
Each well contained 100 μL of cells in culture medium, 50 μL of a solution containing the TRZ-DPHM derivative, and 50 μL of calcein-AM (total volume, 200 μL). The final concentration of putative hPGP inhibitor in each assay ranged from 0.01 to 30 μg/mL. […] Caco-2 cells were used as a negative control (Figure S1). […] PBS was used for all dilutions. All experiments were performed in triplicate.
The effectiveness of inhibitors on Pgp efflux activity, i.e., calcein retention was calculated by the following equation [drawing 1] where FT is the fluorescence of treated cells and FU is the fluorescence of untreated cells.

[2] = system: colorectal adenocarcinoma (Caco-2) cell line; test: MTT cytotoxicity assay against Caco-2 cells; format: cell-based; conditions: for cytotoxic activity in words: halogen in the N-phenyl substituent
Method: The colorectal adenocarcinoma Caco-2 cell line was generously provided by the Zydus Research Centre, Ahmedabad, Gujarat, India. These cells were maintained in DMEM (Hi-Media) containing 25 mM HEPES buffer, 1000 mg/L glucose, L-glutamine, sodium bicarbonate, and sodium pyruvate and supplemented with 20% heat-inactivated FBS (cell clone), 1% (v/v) minimal essential medium nonessential amino acids (Hi-Media), antibiotic, and antimycotic (penicillin, streptomycin, and amphotericin B; Hi-Media) in a humidified atmosphere of 5% CO2 at 37 °C. […] Caco-2 VB cells, which overexpress hPGP, were generated by growing Caco-2 cells in the presence of 1 μg/mL vinblastine. The drug was removed from the culture medium 2–3 days prior to using the Caco-2 VB cells in the biological assays.
Caco-2 cells were cultured in 96-well plates until they reached 70–80% confluency and then treated with the TRZ-DHPM derivatives (0.1–100 μM). Cytotoxicity was determined using an MTT (3-(4,5-dimethylthiazol-2-yl)-2,5-diphenyltetrazolium bromide) assay as described previously.[31]

hPgp = biological target: T2, hPgp (Homo sapiens, UniProt P08183); test: Fluorescence microscopy imaging of intracellular calcein in Caco-2 VB cells; format: cell-based; conditions: for intracellular calcein retention by fluorescence microscopy: Caco-2-VB cells, 1 μM calcein-AM, 30 min, concentration = EC50
T2 construct: Caco-2 VB cells, which overexpress hPGP, were generated by growing Caco-2 cells in the presence of 1 μg/mL vinblastine; endogenous in cells; host or cells: Caco-2 VB (vinblastine-resistant human colorectal adenocarcinoma Caco-2 cells)
T2 sequence (P08183 whole entry): as above
Source text: as §1
Full details are provided in the Supporting Information.

[3] = Homo sapiens, Caco-2 cell line (Table S3)
[4] = Homo sapiens, Caco-2 cell line, MTT assay (Table 1)

Structure (SMILES)	melting point	EC50 [1]	IC50 [2, 3]	IC50 [2, 4]	other results
CC(=O)C1=C(C)NC(=O)NC1c1ccccc1OCc1cn(-c2ccccc2)nn1 (stereo not shown) [6aa′, 5-Acetyl-6-methyl-4-(2-((1-phenyl-1H-1,2,3-triazol-4-yl)methoxy)phenyl)-3,4-dihydropyrimidin-2(1H)-one]	145 to 147 °C	12560 ± 80 nM	1000 ± 300 nM	1100 ± 200 nM	–
CC(=O)C1=C(C)NC(=O)NC1c1ccccc1OCc1cn(-c2ccccc2[N+](=O)[O-])nn1 (stereo not shown) [6ab′, 5-Acetyl-6-methyl-4-(2-((1-(2-nitrophenyl)-1H-1,2,3-triazol-4-yl)methoxy)phenyl)-3,4-dihydropyrimidin-2(1H)-one]	133 to 135 °C	15420 ± 60 nM	–	1300 ± 800 nM	decrease in potency on replacing chlorine by nitro group ([1]; relative to 6ad′, calcein-AM assay): 5 fold
CC(=O)C1=C(C)NC(=O)NC1c1ccccc1OCc1cn(-c2ccc([N+](=O)[O-])cc2)nn1 (stereo not shown) [6ac′, 5-Acetyl-6-methyl-4-(2-((1-(4-nitrophenyl)-1H-1,2,3-triazol-4-yl)methoxy)phenyl)-3,4-dihydropyrimidin-2(1H)-one]	148 to 150 °C	–	2000 ± 530 nM	–	–
CC(=O)C1=C(C)NC(=O)NC1c1ccccc1OCc1cn(-c2cccc(Cl)c2)nn1 (stereo not shown) [6ad′, 5-Acetyl-4-(2-((1-(3-chlorophenyl)-1H-1,2,3-triazol-4-yl)methoxy)phenyl)-6-methyl-3,4-dihydropyrimi-din-2(1H)-one]	130 to 132 °C	3140 ± 30 nM	–	570 ± 30 nM	intracellular calcein retention by fluorescence microscopy (hPgp): confirmed intracellular calcein retention; modulation of hPgp function compared with cyclosporin A or verapamil (statistical analysis) (hPgp; calcein retention, p < 0.0001): better modulator of hPgp function; cytotoxic activity in words ([2]; Caco-2 cell line): sub-micromolar
CC(=O)C1=C(C)NC(=O)NC1c1ccccc1OCc1cn(-c2cccc(Br)c2)nn1 (stereo not shown) [6ae′]	–	–	–	–	IC50 ([2]; Caco-2 cell line (Table S3)): 2000 ± 1200 nM
CC(=O)C1=C(C)NC(=O)NC1c1ccccc1OCc1cn(-c2c(Cl)cc(Cl)cc2Cl)nn1 (stereo not shown) [6af′, 5-Acetyl-6-methyl-4-(2-((1-(2,4,6-trichlorophenyl)-1H-1,2,3-triazol-4-yl)methoxy)phenyl)-3,4-dihydro-pyrimidin-2(1H)-one]	139 to 141 °C	–	3700 ± 300 nM	–	–
CC(=O)C1=C(C)NC(=O)NC1c1ccc(OCc2cn(-c3ccccc3)nn2)cc1 (stereo not shown) [6ba′, 5-Acetyl-6-methyl-4-(4-((1-phenyl-1H-1,2,3-triazol-4-yl)methoxy)phenyl)-3,4-dihydropyrimidin-2(1H)-one]	133 to 135 °C	–	2200 ± 200 nM	–	–
CC(=O)C1=C(C)NC(=O)NC1c1ccc(OCc2cn(-c3ccccc3[N+](=O)[O-])nn2)cc1 (stereo not shown) [6bb′, 5-Acetyl-6-methyl-4-(4-((1-(2-nitrophenyl)-1H-1,2,3-triazol-4-yl)methoxy)phenyl)-3,4-dihydropyrimidin-2(1H)-one]	157 to 159 °C	–	1600 ± 100 nM	–	–
CC(=O)C1=C(C)NC(=O)NC1c1ccc(OCc2cn(-c3ccc([N+](=O)[O-])cc3)nn2)cc1 (stereo not shown) [6bc′, 5-Acetyl-6-methyl-4-(4-((1-(4-nitrophenyl)-1H-1,2,3-triazol-4-yl)methoxy)phenyl)-3,4-dihydropyrimidin-2(1H)-one]	134 to 136 °C	–	2440 ± 40 nM	–	–
CC(=O)C1=C(C)NC(=O)NC1c1ccc(OCc2cn(-c3cccc(Cl)c3)nn2)cc1 (stereo not shown) [6bd′, 5-Acetyl-4-(4-((1-(3-chlorophenyl)-1H-1,2,3-triazol-4-yl)methoxy)phenyl)-6-methyl-3,4-dihydropyrimidin-2(1H)-one]	142 to 144 °C	4800 ± 200 nM	–	760 ± 60 nM	cytotoxic activity in words ([2]; Caco-2 cell line): sub-micromolar
CC(=O)C1=C(C)NC(=O)NC1c1ccc(OCc2cn(-c3cccc(Br)c3)nn2)cc1 (stereo not shown) [6be′, 5-Acetyl-4-(4-((1-(3-bromophenyl)-1H-1,2,3-triazol-4-yl)methoxy)phenyl)-6-methyl-3,4-dihydropyrimidin-2(1H)-one]	138 to 140 °C	9250 ± 20 nM	–	800 ± 100 nM	cytotoxic activity in words ([2]; Caco-2 cell line): sub-micromolar
CC(=O)C1=C(C)NC(=O)NC1c1ccc(OCc2cn(-c3c(Cl)cc(Cl)cc3Cl)nn2)cc1 (stereo not shown) [6bf′, 5-Acetyl-6-methyl-4-(4-((1-(2,4,6-trichlorophenyl)-1H-1,2,3-triazol-4-yl)methoxy)phenyl)-3,4-dihydro-pyrimidin-2(1H)-one]	135 to 137 °C	–	1500 ± 70 nM	–	–
COc1ccc(-n2cc(COc3ccc(C4NC(=O)NC(C)=C4C(C)=O)cc3)nn2)c(OC)c1 (stereo not shown) [6bh′, 5-Acetyl-4-(4-((1-(2,4-dimethoxyphenyl)-1H-1,2,3-triazol-4-yl)methoxy)phenyl)-6-methyl-3,4-dihydro-pyrimidin-2(1H)-one]	140 to 142 °C	4200 ± 200 nM	–	600 ± 200 nM	–
CC(=O)C1=C(C)NC(=O)NC1c1cc(Br)cc(Br)c1OCc1cn(-c2ccccc2)nn1 (stereo not shown) [6ca′, 5-Acetyl-4-(3,5-dibromo-2-((1-phenyl-1H-1,2,3-triazol-4-yl)methoxy)phenyl)-6-methyl-3,4-dihydropyrimidin-2(1H)-one]	157 to 159 °C	4000 ± 200 nM	–	900 ± 100 nM	intracellular calcein retention by fluorescence microscopy (hPgp): confirmed intracellular calcein retention
CC(=O)C1=C(C)NC(=O)NC1c1cc(Br)cc(Br)c1OCc1cn(-c2ccccc2[N+](=O)[O-])nn1 (stereo not shown) [6cb′, 5-Acetyl-4-(3,5-dibromo-2-((1-(2-nitrophenyl)-1H-1,2,3-triazol-4-yl)methoxy)phenyl)-6-methyl-3,4-dihydro-pyrimidin-2(1H)-one]	167 to 169 °C	3400 ± 300 nM	–	1220 ± 80 nM	intracellular calcein retention by fluorescence microscopy (hPgp): confirmed intracellular calcein retention
CC(=O)C1=C(C)NC(=O)NC1c1cc(Br)cc(Br)c1OCc1cn(-c2ccc([N+](=O)[O-])cc2)nn1 (stereo not shown) [6cc′, 5-Acetyl-4-(3,5-dibromo-2-((1-(4-nitrophenyl)-1H-1,2,3-triazol-4-yl)methoxy)phenyl)-6-methyl-3,4-dihydro-pyrimidin-2(1H)-one]	165 to 167 °C	8900 ± 100 nM	–	1250 ± 80 nM	–
COc1cc(C2NC(=O)NC(C)=C2C(C)=O)ccc1OCc1cn(-c2ccccc2)nn1 (stereo not shown) [6da′, 5-Acetyl-4-(3-methoxy-4-((1-phenyl-1H-1,2,3-triazol-4-yl)methoxy)phenyl)-6-methyl-3,4-dihydropyrimidin-2(1H)-one]	151 to 153 °C	–	2560 ± 40 nM	–	–
COc1cc(C2NC(=O)NC(C)=C2C(C)=O)ccc1OCc1cn(-c2ccccc2[N+](=O)[O-])nn1 (stereo not shown) [6db′, 5-Acetyl-4-(3-methoxy-4-((1-(2-nitrophenyl)-1H-1,2,3-triazol-4-yl)methoxy)phenyl)-6-methyl-3,4-dihydropyri-midin-2(1H)-one]	–	–	–	–	IC50 ([2]; Caco-2 cell line (Table S3)): 2290 ± 90 nM
COc1cc(C2NC(=O)NC(C)=C2C(C)=O)ccc1OCc1cn(-c2ccc([N+](=O)[O-])cc2)nn1 (stereo not shown) [6dc′, 5-Acetyl-4-(3-methoxy-4-((1-(4-nitrophenyl)-1H-1,2,3-triazol-4-yl)methoxy)phenyl)-6-methyl-3,4-dihydro-pyrimidin-2(1H)-one]	159 to 161 °C	–	2970 ± 30 nM	–	–
N.N.O=C([O-])C1(C(=O)[O-])CCC1.[Pt+2] [carboplatin, reference compound]	–	–	–	–	IC50 ([2]; Caco-2 cell line, MTT assay (Table 1)): 7000 ± 2000 nM
COc1cccc2c1C(=O)c1c(O)c3c(c(O)c1C2=O)C[C@@](O)(C(C)=O)C[C@@H]3O[C@H]1C[C@H](N)[C@H](O)[C@H](C)O1 [daunorubicin, reference compound]	–	–	–	14000 ± 2000 nM	–
Nc1ccn([C@@H]2O[C@H](CO)[C@@H](O)C2(F)F)c(=O)n1 [gemcitabine, reference compound]	–	–	4500 ± 980 nM	5000 ± 1000 nM	–
